Patent US7074190B2, “Non-invasive apparatus system for monitoring drug hepatoxicity and uses thereof” (priority 2002, dated 2006)

Legend:
adult dogs [1] = experiment: Blood test for drug-induced hepatotoxicity, dog experiment
Description: Two adult dogs weighing 12 and 15 kg were used. One (coded A) of them received 500 mg/kg of body weight of acetaminophen oral solution (dissolved in water); and the other one (coded B) received a higher concentration (1,200 mg/kg of body weight) of acetaminophen via subcutaneous injection. After Nembutal was injected and the respirator was put on, the hair on the front legs of the dogs was shaved and a blood pressure waveform sensor was inserted by operation. The waveform of artery blood pressure waveform on brachial position was continuously recorded and analyzed by a computer with a frequency of 100 data per minute. After surgery and before the drug was orally taken or injected, the blood pressure waveform of each dog was measured for two hours as the baseline. After the drug was orally taken or injected, the blood pressure waveform was continuously monitored for analyzing the hepatotoxicity induced by the drug, and blood samples were periodically taken from a tube inserted into the artery for determining the level of hepatotoxicuty.

adult dogs [2] = experiment: Artery blood pressure waveform analysis before and after taking the drug, dog experiment; format: in vivo; settings: Code A dog, 500 mg/kg oral
Description: The definition of parameter altered amount is: (the parameter value after taking the drug—the parameter value before taking the drug)/the parameter value before taking the drug *100%

[3] = Code A dog, 500 mg/kg oral, 1 hour after the drug was administered
[4] = Code A dog, 500 mg/kg oral, 6 hours after the drug was administered
[5] = Code A dog, 500 mg/kg oral, 12 hours after the drug was administered
[6] = Code B dog, 1,200 mg/kg subcutaneous injection, 1 hour after the drug was administered
[7] = Code B dog, 1,200 mg/kg subcutaneous injection, 6 hours after the drug was administered
[8] = Code B dog, 1,200 mg/kg subcutaneous injection, 12 hours after the drug was administered
[9] = before and after taking the drug (12 hours)

CC(=O)Nc1ccc(O)cc1 [acetaminophen]
ALT (SGPT) (adult dogs [1]; [3]): 25 IU/leter | ASG (SGOT) (adult dogs [1]; [3]): 35 IU/leter | Total biliflavin (adult dogs [1]; [3]): 0.3 mg/dL | ALT (SGPT) (adult dogs [1]; [4]): 23 IU/leter | ASG (SGOT) (adult dogs [1]; [4]): 33 IU/leter | Total biliflavin (adult dogs [1]; [4]): 0.2 mg/dL | ALT (SGPT) (adult dogs [1]; [5]): 24 IU/leter | ASG (SGOT) (adult dogs [1]; [5]): 45 IU/leter | Total biliflavin (adult dogs [1]; [5]): 0.2 mg/dL | ALT (SGPT) (adult dogs [1]; [6]): 33 IU/leter | ASG (SGOT) (adult dogs [1]; [6]): 38 IU/leter | Total biliflavin (adult dogs [1]; [6]): 0.2 mg/dL | ALT (SGPT) (adult dogs [1]; [7]): 37 IU/leter | ASG (SGOT) (adult dogs [1]; [7]): 198 IU/leter | Total biliflavin (adult dogs [1]; [7]): 0.2 mg/dL | ALT (SGPT) (adult dogs [1]; [8]): 47 IU/leter | ASG (SGOT) (adult dogs [1]; [8]): 298 IU/leter | Total biliflavin (adult dogs [1]; [8]): 0.2 mg/dL | biliflavin (adult dogs [1]; Code B dog, 1,200 mg/kg subcutaneous injection, acute poisoning experiment): does not raise significantly | ALT (adult dogs [1]; Code B dog, 1,200 mg/kg subcutaneous injection, after 12 hours): 47 IU/L | AST (SGOT) (adult dogs [1]; Code B dog, 1,200 mg/kg subcutaneous injection, after 12 hours, baseline 41): 298 IU/liter | hepatotoxicity shown by blood test results (adult dogs [1]; Code B dog, 1,200 mg/kg via subcutaneous injection): a certain level of hapatotoxicity | Oblique angle parameter D1 = (Bb-Aa)/ab (adult dogs [2]; 12 hours after taking the drug): D1 = (Bb-Aa)/ab = 92 mmHg/sec. | Oblique angle parameter D2 = (Bb-Cc)/bc (adult dogs [2]; 12 hours after taking the drug): D2 = (Bb-Cc)/bc = 350 mmHg/sec. | Oblique angle parameter D3 = (Dd-Cc)/cd (adult dogs [2]; 12 hours after taking the drug): D3 = (Dd-Cc)/cd = 420 mmHg/sec. | Oblique angle parameter D4 = (Dd-Ee)/de (adult dogs [2]; 12 hours after taking the drug): D4 = (Dd-Ee)/de = 110 mmHg/sec. | Oblique angle parameter D5 = D1 + D2 (adult dogs [2]; 12 hours after taking the drug): D5 = D1 + D2 = 1270 mmHg/sec. | Oblique angle parameter D6 = D3 + D4 (adult dogs [2]; 12 hours after taking the drug): D6 = D3 + D4 = 530 mmHg/sec. | Pressure parameter P1 = Aa (adult dogs [2]; 12 hours after taking the drug): P1 = Aa = 149 mmHg | Pressure parameter P2 = Bb (adult dogs [2]; 12 hours after taking the drug): P2 = Bb = 195 mmHg | Pressure parameter P3 = Cc (adult dogs [2]; 12 hours after taking the drug): P3 = Cc = 156 mmHg | Pressure parameter P4 = Dd (adult dogs [2]; 12 hours after taking the drug): P4 = Dd = 173 mmHg | Pressure parameter P5 = Ee (adult dogs [2]; 12 hours after taking the drug): P5 = Ee = 149 mmHg | Ratio parameter RA1 = A6/A5 (adult dogs [2]; 12 hours after taking the drug): RA1 = A6/A5 = 1.46 | Ratio parameter RA2 = A5/A7 (adult dogs [2]; 12 hours after taking the drug): RA2 = A5/A7 = 0.41 | Ratio parameter RA3 = A6/A7 (adult dogs [2]; 12 hours after taking the drug): RA3 = A6/A7 = 0.59 | Ratio parameter RP1 = Dd/Bb (adult dogs [2]; 12 hours after taking the drug): RP1 = Dd/Bb = 0.89 | Ratio parameter RT1 = ab/ae (adult dogs [2]; 12 hours after taking the drug): RT1 = ab/ae = 0.12 | Ratio parameter RT2 = ac/ae (adult dogs [2]; 12 hours after taking the drug): RT2 = ac/ae = 0.40 | Ratio parameter RT3 = ad/ae (adult dogs [2]; 12 hours after taking the drug): RT3 = ad/ae = 0.49 | Superficial measure parameter A1 = AabB (adult dogs [2]; 12 hours after taking the drug): A1 = AabB = 9 sec. * mmHg | Superficial measure parameter A2 = BbcC (adult dogs [2]; 12 hours after taking the drug): A2 = BbcC = 19 sec. * mmHg | Superficial measure parameter A3 = CcdD (adult dogs [2]; 12 hours after taking the drug): A3 = CcdD = 7 sec. * mmHg | Superficial measure parameter A4 = DdeE (adult dogs [2]; 12 hours after taking the drug): A4 = DdeE = 34 sec. * mmHg | Superficial measure parameter A5 = A1 + A2 (adult dogs [2]; 12 hours after taking the drug): A5 = A1 + A2 = 28 sec. * mmHg | Superficial measure parameter A6 = A3 + A4 (adult dogs [2]; 12 hours after taking the drug): A6 = A3 + A4 = 41 sec. * mmHg | Superficial measure parameter A7 = A5 + A6 (adult dogs [2]; 12 hours after taking the drug): A7 = A5 + A6 = 69 sec. * mmHg | Time parameter T1 = ab (adult dogs [2]; 12 hours after taking the drug): T1 = ab = 0.05 second | Time parameter T2 = bc (adult dogs [2]; 12 hours after taking the drug): T2 = bc = 0.11 second | Time parameter T3 = cd (adult dogs [2]; 12 hours after taking the drug): T3 = cd = 0.04 second | Time parameter T4 = de (adult dogs [2]; 12 hours after taking the drug): T4 = de = 0.21 second | Time parameter T5 = ae (adult dogs [2]; 12 hours after taking the drug): T5 = ae = 0.41 second | Pressure parameter Altered amount P1 = Aa (adult dogs [2]; [9]): P1 = Aa = 0.7 mmHg | Pressure parameter Altered amount P2 = Bb (adult dogs [2]; [9]): P2 = Bb = 1.0 mmHg | Pressure parameter Altered amount P3 = Cc (adult dogs [2]; [9]): P3 = Cc = 1.3 mmHg | Pressure parameter Altered amount P4 = Dd (adult dogs [2]; [9]): P4 = Dd = 2.4 mmHg | Pressure parameter Altered amount P5 = Ee (adult dogs [2]; [9]): P5 = Ee = 0.7 mmHg | Ratio parameter Altered amount RA1 = A6/A5 (adult dogs [2]; [9]): RA1 = A6/A5 = 12.3 | Ratio parameter Altered amount RA2 = A5/A7 (adult dogs [2]; [9]): RA2 = A5/A7 = −6.8 | Ratio parameter Altered amount RA3 = A6/A7 (adult dogs [2]; [9]): RA3 = A6/A7 = 5.3 | Ratio parameter Altered amount RP1 = Dd/Bb (adult dogs [2]; [9]): RP1 = Dd/Bb = 9.2 | Ratio parameter Altered amount RT1 = ab/ae (adult dogs [2]; [9]): RT1 = ab/ae = −25.0 | Ratio parameter Altered amount RT2 = ac/ae (adult dogs [2]; [9]): RT2 = ac/ae = −5.0 | Ratio parameter Altered amount RT3 = ad/ae (adult dogs [2]; [9]): RT3 = ad/ae = −11.0 | Superficial measure parameter Altered amount A1 = AabB (adult dogs [2]; [9]): Al = AabB = −10.0 sec. * mmHg | Superficial measure parameter Altered amount A2 = BbcC (adult dogs [2]; [9]): A2 = BbcC = 11.8 sec. * mmHg | Superficial measure parameter Altered amount A3 = CcdD (adult dogs [2]; [9]): A3 = CcdD = −12.5 sec. * mmHg | Superficial measure parameter Altered amount A4 = DdeE (adult dogs [2]; [9]): A4 = DdeE = 25.9 sec. * mmHg | Superficial measure parameter Altered amount A5 = A1 + A2 (adult dogs [2]; [9]): A5 = A1 + A2 = 3.7 sec. * mmHg | Superficial measure parameter Altered amount A6 = A3 + A4 (adult dogs [2]; [9]): A6 = A3 + A4 = 17.1 sec. * mmHg | Superficial measure parameter Altered amount A7 = A5 + A6 (adult dogs [2]; [9]): A7 = A5 + A6 = 11.3 sec. * mmHg | Time parameter Altered Amount T2 = bc (adult dogs [2]; [9]): T2 = bc = 10.0 second
